A short description of data set [1]: Stability in Simulated Gastric Fluid (SGF). On the set-up: key: % parent compound remaining relative to 0-minute sample. Format: in vitro ADME. In short, it runs like this: (§1)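 Percent of parent remaining relative to time zero was measured by LC-MS/MS over 0–60 min at 37 °C, 150 rpm. Test compound was 2 μg/mL final in pepsin-containing SGF, pH 1.2, or pancreatin-containing SIF, pH 6.8. Degradation half-life was derived from the log-linear decay where enough points allowed.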

Another data set can be described thus: Plasma Stability. Format: in vitro ADME, human. In short, it runs like this: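 Parent compound quantified by LC-MS/MS after acetonitrile precipitation, reported as percent of control remaining (triplicate). Incubation: 1 hour, 37° C, fresh human plasma, compound at 1 μM.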
The subject of another data set is Caco-2 monolayer. The experiment in a line: Caco-2 Permeability Assay. Format: in vitro ADME, human. Summed up:
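Bidirectional transport at 37 °C for 90 min, 10 μM donor concentration, with or without Pgp inhibitor, across 21-day Caco-2 monolayers with TEER >600 […] in HEPES-buffered HBSS, pH 7.4. LC-MS/MS of donor and receiver samples gives Papp, B→A/A→B efflux ratio and mass recovery.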
A general note: Passage across Caco-2 layers is used to estimate intestinal permeability.

Data set [2] can be described thus: Stability in Simulated Intestinal Fluid (SIF). On the set-up: key: % parent compound remaining relative to 0-minute sample. Format: in vitro ADME. In short, it runs like this:
as §1

Where [3] appears, read: simulated gastric fluid, remaining at 1 h.
[4] abbreviates: simulated intestinal fluid, remaining at 1 h.

Where two headings read alike, the source gives them in different places.

Regarding `CC(C)OCCn1c(SCOC(=O)CCCCOC(=O)CNC(=O)OC(C)(C)C)nc(=O)c2c1ccn2COC(=O)CCCCOC(=O)CNC(=O)OC(C)(C)C` [Example 329, ({5-[{{5-[(2-{[(tert-butoxy)carbonyl]amino}acetyl)oxy]pentanoyl}oxy)methyl]-4-oxo-1-[2-(propan-2-yloxy)ethyl]-1H,4H,5H-pyrrolo[3,2-d]pyrimidin-2-yl}sulfanyl)methyl 5-[(2-{[(tert-butoxy)carbonyl]amino}acetyl)oxy] pentanoate], the SGF in data set [1] (% remaining @ 1 h) is 95% @ 1 h. The “human Plasma stability” value in the data set “Plasma Stability” (% remaining @ 1 h) amounted to 1% @ 1 h. For the same compound, in the data set on Caco-2 monolayer, the “Caco-2 Papp” value stood at 5.96 ×10⁻⁶ cm/s. The SIF in data set [2] (% remaining @ 1 h) is reported as 35% @ 1 h.
Take `CC(C)C[C@H](NC(=O)OC(C)(C)C)C(=O)OCCCCC(=O)OCn1c(=O)c2c(ccn2COC(=O)CCCCOC(=O)[C@H](CC(C)C)NC(=O)OC(C)(C)C)n(CCOC(C)C)c1=S` [Example 344, 5-[(3-{[(5-{[(2S)-2-{[(tert-butoxy)carbonyl]amino}-4-methylpentanoyl]oxy}penta-noyl)oxy]methyl}-4-oxo-1-[2-(propan-2-yloxy)ethyl]-2-sulfanylidene-1H,2H,3H,4H,5H-pyrrolo[3,2-d]pyrimidin-5-yl)methoxy]-5-oxopentyl (2S)-2-{[(tert-butoxy)carbonyl]amino}-4-methylpentanoate]: the SGF in data set [1] (% remaining @ 1 h) is 100% remaining. Moreover, the “human Plasma stability” value in the data set “Plasma Stability” (% remaining @ 1 h) was 28% remaining. In addition, the “Caco-2 Papp” value in the data set with Caco-2 monolayer (Caco-2) worked out at 2.46 ×10⁻⁶ cm/s. For the same compound, the SIF in data set [2] (% remaining @ 1 h) is on record as 26% remaining.
Take `CC(C)C[C@@H](NC(=O)OC(C)(C)C)C(=O)OCCCCC(=O)OCn1c(=O)c2c(ccn2COC(=O)CCCCOC(=O)[C@@H](CC(C)C)NC(=O)OC(C)(C)C)n(CCOC(C)C)c1=S` [Example 349, 5-[(3-{[(5-{[(2R)-2-{[(tert-butoxy)carbonyl]amino}-4-methylpentanoyl]oxy}penta-noyl)oxy]methyl}-4-oxo-1-[2-(propan-2-yloxy)ethyl]-2-sulfanylidene-1H,2H,3H,4H,5H-pyrrolo[3,2-d]pyrimidin-5-yl)methoxy]-5-oxopentyl (2R)-2-{[(tert-butoxy)carbonyl]amino}-4-methylpentanoate]: in data set [1] (setting [3]), the SGF is listed as 99% remaining. For the same compound, the “human Plasma stability” value in the data set “Plasma Stability” (human plasma, remaining at 1 h) stood at 6% remaining. Besides, in the data set with Caco-2 monolayer (Caco-2 monolayer), the “Caco-2 Papp” value stood at 4.99 ×10⁻⁶ cm/s. Besides, in data set [2] (setting [4]), the SIF is recorded as 8% remaining.
`CC(C)OCCn1c(SCOC(=O)CCCOC(=O)[C@H](NC(=O)OC(C)(C)C)C(C)C)nc(=O)c2c1ccn2COC(=O)CCCOC(=O)[C@H](NC(=O)OC(C)(C)C)C(C)C` [Example 357, 4-{[2-({[(4-{[(2R)-2-{[(tert-butoxy)carbonyl]amino}-3-methylbutanoyl]oxy}buta-noyl)oxy]methyl}sulfanyl)-4-oxo-1-[2-(propan-2-yloxy)ethyl]-1H,4H,5H-pyrrolo[3,2-d]pyrimidin-5-yl]methoxy}-4-oxobutyl (2R)-2-{[(tert-butoxy)carbonyl]amino}-3-methylbutanoate]: in data set [1] (setting [3]), the SGF was 98% remaining. Moreover, the “human Plasma stability” value in “Plasma Stability” (human plasma, remaining at 1 h) came to 5% remaining. The “Caco-2 Papp” value with Caco-2 monolayer (Caco-2 monolayer) was found to be 1.5 ×10⁻⁶ cm/s. Further, the SIF in data set [2] (setting [4]) is reported as 14% remaining.
The like results for `CC(C)OCCn1c(=S)n(COC(=O)CCCOC(=O)[C@H](NC(=O)OC(C)(C)C)C(C)C)c(=O)c2c1ccn2COC(=O)CCCOC(=O)[C@H](NC(=O)OC(C)(C)C)C(C)C` [Example 359, (((1-(2-isopropoxyethyl)-4-oxo-2-thioxo-1,4-dihydro-3H-pyrrolo[3,2-d]pyrimidine-3,5(2H)-diyl)bis(methylene))bis(oxy))bis(4-oxobutane-4,1-diyl) (2R,2′R)-bis(2-((tert-butoxycarbonyl)amino)-3-methylbutanoate)] were, in that order, 99% remaining, 8% remaining, under 0.297 ×10⁻⁶ cm/s and 41% remaining.
The like results for `CC(C)OCCn1c(=S)n(COC(=O)CCCOC(=O)[C@H](N)C(C)C)c(=O)c2c1ccn2COC(=O)CCCOC(=O)[C@H](N)C(C)C.O=C(O)C(F)(F)F.O=C(O)C(F)(F)F` [Example 360, bis(trifluoroacetic acid) 4-[(3-{[(4-{[(2R)-2-amino-3-methylbutanoyl]oxy}buta-noyl)oxy]methyl}-4-oxo-1-[2-(propan-2-yloxy)ethyl]-2-sulfanylidene-1H,2H,3H,4H,5H-pyrrolo[3,2-d]pyrimidin-5-yl)methoxy]-4-oxobutyl (2R)-2-amino-3-methylbutanoate] were, in that order, 46% remaining, 3% remaining, under 0.628 ×10⁻⁶ cm/s and 56% remaining.
`CC(C)OCCn1c(=S)[nH]c(=O)c2c1ccn2C(=O)NCCOCCNC(=O)[C@H](NC(=O)OC(C)(C)C)C(C)C` [Example 378, tert-butyl N-[(1R)-2-methyl-1-({2-[2-({4-oxo-1-[2-(propan-2-yloxy)ethyl]-2-sulfanylidene-1H,2H,3H,4H,5H-pyrrolo[3,2-d]pyrimidine-5-carbonyl}amino)ethoxy]ethyl}carba-moyl)propyl]carbamate]: the SGF in data set [1] (simulated gastric fluid, bare number, unit or time not given) was 98. Further, the “human Plasma stability” value in “Plasma Stability” (human plasma, remaining at 1 h) worked out at 93% remaining. For the same compound, in the data set with Caco-2 monolayer (Caco-2 monolayer), the “Caco-2 Papp” value amounted to 0.0903 ×10⁻⁶ cm/s. Further, the SIF in data set [2] (simulated intestinal fluid, bare number, unit or time not given) is recorded as 96.
Consider `CC(C)OCCn1c(SCOC(=O)N(C)CCOCCNC(=O)[C@H](N)C(C)C)nc(=O)c2[nH]ccc21.O=C(O)C(F)(F)F` [Example 391, trifluoroacetic acid ({4-oxo-1-[2-(propan-2-yloxy)ethyl]-1H,4H,5H-pyrrolo[3,2-d]pyrimidin-2-yl}sulfanyl) methyl N-(2-{2-[(2R)-2-amino-3-methylbutanamido]ethoxy}ethyl)-N-methylcarbamate], for which the SGF in data set [1] (setting [3]) is 96% remaining. Besides, in the data set “Plasma Stability” (human plasma, remaining at 1 h), the “human Plasma stability” value is 1% remaining. The “Caco-2 Papp” value in the data set with Caco-2 monolayer (Caco-2 monolayer) worked out at 3.65 ×10⁻⁶ cm/s. The SIF in data set [2] (setting [4]) was 70% remaining.
In the case of `CC(C)OCCn1c(=S)n(COC(=O)OCCOCCOC(N)=O)c(=O)c2[nH]ccc21` [Example 403, 3-{[{{2-[2-(carbamoyloxy)ethoxy]ethoxy}car-bonyl)oxy]methyl}-1-[2-(propan-2-yloxy)ethyl]-2-sulfanylidene-1H,2H,3H,4H,5H-pyrrolo[3,2-d]pyrimidin-4-one], the SGF in data set [1] (% remaining after 1 h in simulated gastric fluid) is listed as 98% remaining. Besides, the “human Plasma stability” value in “Plasma Stability” (% remaining after 1 h in human plasma) was 0% remaining. Moreover, the “Caco-2 Papp” value in the data set on Caco-2 monolayer (Caco-2 monolayer) was found to be 0.477 ×10⁻⁶ cm/s. The SIF in data set [2] (% remaining after 1 h in simulated intestinal fluid) is reported as 54% remaining.
Take “(2R)-2-amino-4-(methylsulfanyl)-N-[2-(2-{[{{4-oxo-1-[2-(propan-2-yloxy)ethyl]-2-sulfanylidene-1H,2H,3H,4H,5H-pyrrolo[3,2-d]pyrimidin-5-yl}methoxy)carbonyl]oxy}ethoxy)eth-yl]butanamide; trifluoroacetic acid [Example 390]”: the SGF in data set [1] (setting [3]) is 100% remaining. The “human Plasma stability” value in the data set “Plasma Stability” (human plasma, remaining at 1 h) was found to be 0% remaining. Besides, the “Caco-2 Papp” value in the data set on Caco-2 monolayer (Caco-2 monolayer) stood at 0.49 ×10⁻⁶ cm/s. Also, in data set [2] (setting [4]), the SIF is given as 64% remaining.
For the compound “(2R)-2-amino-4-methyl-N-[2-(2-{[{{4-oxo-1-[2-(propan-2-yloxy)ethyl]-2-sulfanylidene-1H,2H,3H,4H,5H-pyrrolo[3,2-d]pyrimidin-5-yl}methoxy)carbonyl]oxy}ethoxy)eth-yl]pentanamide; trifluoroacetic acid [Example 386]”, the SGF in data set [1] (setting [3]) was 93% remaining. In addition, the “human Plasma stability” value in the data set “Plasma Stability” (human plasma, remaining at 1 h) is given as 23% remaining. Besides, the “Caco-2 Papp” value in the data set with Caco-2 monolayer (Caco-2 monolayer) was 0.077 ×10⁻⁶ cm/s. Also, the SIF in data set [2] (setting [4]) was 86% remaining.
“(2R)-2-amino-N-[2-(2-{[{{4-oxo-1-[2-(propan-2-yloxy)ethyl]-2-sulfanylidene-1H,2H,3H,4H,5H-pyrrolo[3,2-d]pyrimidin-5-yl}methoxy)carbonyl]oxy}ethoxy)eth-yl]-3-phenylpropanamide; trifluoroacetic acid [Example 388]”: the SGF in data set [1] (setting [3]) was 97% remaining. Moreover, the “human Plasma stability” value in “Plasma Stability” (human plasma, remaining at 1 h) was 1% remaining. Moreover, the “Caco-2 Papp” value with Caco-2 monolayer (Caco-2 monolayer) was under 1.99 ×10⁻⁶ cm/s. The SIF in data set [2] (setting [4]) was 73% remaining.
The like results for “(2R)-2-{[(tert-butoxy)carbonyl]amino}-4-methyl-N-[2-(2-{[{{4-oxo-1-[2-(propan-2-yloxy)ethyl]-2-sulfanylidene-1H,2H,3H,4H,5H-pyrrolo[3,2-d]pyrimidin-5-yl}methoxy)carbonyl]oxy}ethoxy)eth-yl]pentanamide [Example 385]” were, in that order, 94% remaining, 1% remaining, 3.87 ×10⁻⁶ cm/s and 84% remaining.
Consider “(2R)-2-{[(tert-butoxy)carbonyl]amino}-N-[2-(2-{[{{4-oxo-1-[2-(propan-2-yloxy)ethyl]-2-sulfanylidene-1H,2H,3H,4H,5H-pyrrolo[3,2-d]pyrimidin-5-yl}methoxy)carbonyl]oxy}ethoxy)eth-yl]-3-phenylpropanamide [Example 387]”, for which the SGF in data set [1] (setting [3]) is 92% remaining. Besides, in the data set “Plasma Stability” (human plasma, remaining at 1 h), the “human Plasma stability” value is given as 1% remaining. In the data set with Caco-2 monolayer (Caco-2 monolayer), the “Caco-2 Papp” value turned out to be 4.5 ×10⁻⁶ cm/s. Further, in data set [2] (setting [4]), the SIF was 75% remaining.

(Values after patent publication US20240067651A1 (Biohaven Therapeutics Ltd., priority 2019, published 2024).)
